Drawing on patent US9120760B2, “Fluoro-homoneplanocin A and nucleoside derivatives, method for the synthesis thereof, and the pharmaceutical compositions comprising the same as an active component for treatment of cancer” (EWHA UNIVERSITY—INDUSTRY COLLABORATION FOUNDATION, priority 2012, dated 2015), this text covers IC50 for five compounds.

Assay type in all cases: cell-based
In one experiment the test system is K562 (blood cancer). The experiment can be described thus: SRB cell growth inhibition assay, K562. Particulars: Homo sapiens, 96 hours, read-out: concentration of the drug to inhibit the cell growth by 50%. The text has this: [Worded in the source for another cell line; this cell line is reported under the same test.] (§1) Measurement of the Growth Inhibition Ability Against Cancer Cells
(§2) Human cancer cell strains were obtained through the following paths: OVCAR-3 (ovarian cancer), MCF-7 (hormone dependent breast cancer), MDA-MB-231 (breast cancer), HeLa (cervical cancer), PC3 (prostate cancer), LNCap (prostate cancer), HepG2 (liver cancer), A549 (lung cancer), NCI-H226 (lung cancer), Caki-1 (kidney cancer), SK-MEL-28 (melanoma cancer), HT-29 (colorectal cancer), HCT116 (colorectal cancer) and PANC-1 (pancreas cancer) cells were purchased from American Type Culture Collection (ATCC) (Manassas, Va.); U251(brain tumor) cells were purchased from Riken Institutes, Marunouchi, Tokyo, Japan; MKN-45 (gastric cancer) cells were purchased from DSMZ (Germany); and UMRC2 (kidney cancer) cells were purchased from U.S. National Cancer Institute (Bethesda, Md.).
(§3) MDA-MB-231, HCT116, UMRC2, Caki-1 and PANC-1 cells were cultured in Dulbecco's modified Eagle's medium (“DMEM”, Invitrogen) including 10% FBS, 100 units/mL penicillin-streptomycin (P/S), 10 mM HEPES and 2 mM L-glutamine. All the other cell strains were cultured in RPMI1640 medium (Invitrogen, Carlsbad, Calif.) including 10% fetal bovine serum (FBS), 1 mM sodium pyruvate, 10 mM HEPES, and 100 units/mL penicillin-streptomycin (P/S). All cells were cultured at 37° C. 5% CO2 humid conditions.
(§4) The cell growth inhibition level of the novel compound synthesized using (1S,2R,5S)-5-(6-Aminopurine-9-yl)-4-fluoro-3-hydroxyethyl-cyclopent-3(4)-en-1,2-diol (compound of Formula 1 where X is NH2 and R2 is H) prepared in the above Example 3, (1S,2R,5S)-4-Fluoro-3-hydroxyethyl-5-(uracil-1-yl)-cyclopent-3(4)-en-1,2-diol (Compound 10) prepared in the above Example 4, (1S,2R,5S)-5-(Cytosine-1-yl)-4-fluoro-3-hydroxyethyl-cyclopent-3(4)-en-1,2-diol (Compound 11) prepared in the above Example 5, Fluoro-neplanocin A, and Homoneplanocin A was analyzed by SRB (sulphorhodamine B) assay according to the publicly known method in the literature.
(§5) Human cancer cell strains increased exponentially were divided into the 96-well plates at the density of 2×10^3 to 3×10^3 cells/well and processed with the compounds of the various concentrations in the present invention on the next day. 0.25% DMSO was used as a control group. Three experiments were performed for each process. The cells were fixed with 10% trichloro-acetic acid at 96 hours after processing with the compound and SRB analysis was carried out. Optical density was measured at 530 nm with Benchmark PlusMicroplate Reader (Bio-Rad Laboratories, Hercules, Calif.). The concentration of the drug to inhibit the cell growth by 50% […] was measured with Kaledia Graph (Synergy software, Reading, Pa.).

A further experiment concerns PC-3 (prostate cancer). The experiment in a line: SRB cell growth inhibition assay, PC-3. To be noted: Homo sapiens, 96 hours, read-out: concentration of the drug to inhibit the cell growth by 50%.
From the text: as §1, §2, §3, §4, §5

The subject of a further experiment is T47D (breast cancer). The experiment in a line: SRB cell growth inhibition assay, T47D. To be noted: Homo sapiens, 96 hours, read-out: concentration of the drug to inhibit the cell growth by 50%.
From the text: [Worded in the source for another cell line; this cell line is reported under the same test.] as §1, §2, §3, §4, §5

A further experiment concerns SNU638 (gastric cancer). The experiment in a line: SRB cell growth inhibition assay, SNU638. Particulars: Homo sapiens, SNU-638, 96 hours, read-out: concentration of the drug to inhibit the cell growth by 50%.
From the text: [Worded in the source for another cell line; this cell line is reported under the same test.] as §1, §2, §3, §4, §5

Experiment [1] concerns HCT-116 (colorectal cancer). The experiment can be described thus: SRB cell growth inhibition assay, HCT-116. To be noted: Homo sapiens, 96 hours, read-out: concentration of the drug to inhibit the cell growth by 50%.
From the text: as §1, §2, §3, §4, §5

The next experiment concerns A549 (lung cancer). The experiment in a line: SRB cell growth inhibition assay, A549. To be noted: Homo sapiens, 96 hours, read-out: concentration of the drug to inhibit the cell growth by 50%.
From the text: as §1, §2, §3, §4, §5

On to `Nc1ccn([C@@H]2C(F)=C(CCO)[C@@H](O)[C@H]2O)c(=O)n1` [Compound 11, (1S,2R,5S)-5-(Cytosine-1-yl)-4-fluoro-3-hydroxyethyl-cyclopent-3(4)-en-1,2-diol], for which the IC50 was over 10000 nM in the experiment on K562 (blood cancer); over 10 µM with PC-3 (prostate cancer); over 10 µM in the experiment on T47D (breast cancer); over 10000 nM in the experiment on SNU638 (gastric cancer); over 10000 nM in experiment [1]; over 10000 nM in the experiment with A549 (lung cancer).
With `Nc1ncnc2c1ncn2C1C=C(CCO)C(O)C1O` (stereo not drawn) [Homoneplanocin A], the IC50 was over 10000 nM in the experiment on K562 (blood cancer); over 10 µM with PC-3 (prostate cancer); over 10 µM in the experiment with T47D (breast cancer); over 10000 nM in the experiment on SNU638 (gastric cancer); over 10000 nM in experiment [1]; over 10000 nM in the experiment on A549 (lung cancer).
As for `Nc1ncnc2c1ncn2[C@@H]1C(F)=C(CCO)[C@@H](O)[C@H]1O` [Compound of Formula 1, (1S,2R,5S)-5-(6-Aminopurine-9-yl)-4-fluoro-3-hydroxyethyl-cyclopent-3(4)-en-1,2-diol], the IC50 was 130 nM with K562 (blood cancer); 2.39 µM in the experiment with PC-3 (prostate cancer); 2.83 µM with T47D (breast cancer); 370 nM in the experiment with SNU638 (gastric cancer); 1100 nM in experiment [1]; 620 nM with A549 (lung cancer).
Take `Nc1ncnc2c1ncn2C1C(F)=C(CO)C(O)C1O` (stereo not drawn) [Fluoro-neplanocin A, reference compound]: the IC50 in the experiment with K562 (blood cancer) worked out at 2200 nM; with PC-3 (prostate cancer), 3.1 µM; with T47D (breast cancer) it was 3.6 µM; with SNU638 (gastric cancer) it was 1300 nM; in experiment [1], 1400 nM; in the experiment on A549 (lung cancer), 2600 nM.
Regarding `O=c1ccn([C@@H]2C(F)=C(CCO)[C@@H](O)[C@H]2O)c(=O)[nH]1` [Compound 10, (1S,2R,5S)-4-Fluoro-3-hydroxyethyl-5-(uracil-1-yl)-cyclopent-3(4)-en-1,2-diol], the IC50 is over 10000 nM in the experiment on K562 (blood cancer); over 10 µM with PC-3 (prostate cancer); over 10 µM in the experiment with T47D (breast cancer); over 10000 nM in the experiment with SNU638 (gastric cancer); over 10000 nM in experiment [1]; over 10000 nM in the experiment with A549 (lung cancer).
